Measured values: patent US11572590B2, “Methods for evaluating tumor cell spheroids using 3D microfluidic cell culture device” (Dana-Farber Cancer Institute, Inc., priority 2017, dated 2023)
Where two headings read alike, the source gives them in different places.

Legend:
Assay in all cases: SelectScreen Kinase Profiling, single point inhibition and IC50 for off-target kinases
Format in all cases: biochemical
[1] = target: off-target kinases (Homo sapiens, UniProt Q13554); settings: CAMK2B (CaMKII beta), ZLYTE, ATP Km app
Chain of off-target kinases (Homo sapiens, UniProt Q13554) (Q13554 whole entry): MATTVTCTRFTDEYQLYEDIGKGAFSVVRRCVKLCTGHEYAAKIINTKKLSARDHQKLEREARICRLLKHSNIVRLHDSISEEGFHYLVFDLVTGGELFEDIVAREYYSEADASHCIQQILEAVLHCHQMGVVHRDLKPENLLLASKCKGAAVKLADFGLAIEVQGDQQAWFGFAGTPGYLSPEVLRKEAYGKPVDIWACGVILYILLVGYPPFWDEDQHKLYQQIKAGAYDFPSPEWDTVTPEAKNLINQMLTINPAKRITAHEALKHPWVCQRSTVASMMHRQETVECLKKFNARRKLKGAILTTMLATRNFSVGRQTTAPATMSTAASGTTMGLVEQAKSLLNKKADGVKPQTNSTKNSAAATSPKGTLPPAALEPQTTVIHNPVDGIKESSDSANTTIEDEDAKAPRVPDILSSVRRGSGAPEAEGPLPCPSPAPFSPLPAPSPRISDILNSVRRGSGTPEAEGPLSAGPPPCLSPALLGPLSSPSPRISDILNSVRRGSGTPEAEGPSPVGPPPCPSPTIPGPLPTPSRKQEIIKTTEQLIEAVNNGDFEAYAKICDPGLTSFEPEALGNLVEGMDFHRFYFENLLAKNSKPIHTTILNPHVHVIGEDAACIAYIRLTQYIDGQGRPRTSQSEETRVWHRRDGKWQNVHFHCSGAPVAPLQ

[2] = target: T1, off-target kinases (Homo sapiens, UniProt Q04771); settings: ACVR1 (ALK2), LanthaScreen Binding
T1 sequence (Q04771 21-509): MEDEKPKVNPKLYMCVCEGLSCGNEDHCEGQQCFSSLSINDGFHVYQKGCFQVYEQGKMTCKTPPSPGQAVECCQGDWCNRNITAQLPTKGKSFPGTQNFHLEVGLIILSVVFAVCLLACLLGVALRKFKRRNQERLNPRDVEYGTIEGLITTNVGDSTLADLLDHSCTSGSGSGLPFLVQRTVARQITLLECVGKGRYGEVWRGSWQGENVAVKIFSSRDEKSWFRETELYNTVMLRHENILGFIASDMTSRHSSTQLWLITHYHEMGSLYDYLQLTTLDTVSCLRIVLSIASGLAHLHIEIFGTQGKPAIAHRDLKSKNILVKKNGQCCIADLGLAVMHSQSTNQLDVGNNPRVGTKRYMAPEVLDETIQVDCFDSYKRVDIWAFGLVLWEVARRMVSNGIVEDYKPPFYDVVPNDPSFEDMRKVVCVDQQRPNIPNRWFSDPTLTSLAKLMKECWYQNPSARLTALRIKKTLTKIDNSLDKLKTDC

[3] = target: off-target kinases (Homo sapiens, UniProt Q9H3Y6); settings: SRMS (Srm), ZLYTE, ATP Km app
Chain of off-target kinases (Homo sapiens, UniProt Q9H3Y6) (Q9H3Y6 whole entry): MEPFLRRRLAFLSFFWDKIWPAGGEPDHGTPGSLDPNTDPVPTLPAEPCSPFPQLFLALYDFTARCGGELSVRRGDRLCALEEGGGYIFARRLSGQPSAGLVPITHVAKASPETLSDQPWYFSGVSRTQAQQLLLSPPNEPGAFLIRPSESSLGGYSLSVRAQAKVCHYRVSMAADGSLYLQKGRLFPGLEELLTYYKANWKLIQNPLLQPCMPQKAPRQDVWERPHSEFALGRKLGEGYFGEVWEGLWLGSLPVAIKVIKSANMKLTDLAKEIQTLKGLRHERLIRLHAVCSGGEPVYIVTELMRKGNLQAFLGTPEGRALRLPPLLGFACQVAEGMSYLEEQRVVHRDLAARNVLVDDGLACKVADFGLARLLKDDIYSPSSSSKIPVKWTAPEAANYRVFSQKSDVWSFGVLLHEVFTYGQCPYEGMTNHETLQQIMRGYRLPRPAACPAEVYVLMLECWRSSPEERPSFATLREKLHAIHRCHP

[4] = target: off-target kinases (Homo sapiens, UniProt P07947); settings: YES1, ATP Km app, ZLYTE
Chain of off-target kinases (Homo sapiens, UniProt P07947) (P07947 whole entry): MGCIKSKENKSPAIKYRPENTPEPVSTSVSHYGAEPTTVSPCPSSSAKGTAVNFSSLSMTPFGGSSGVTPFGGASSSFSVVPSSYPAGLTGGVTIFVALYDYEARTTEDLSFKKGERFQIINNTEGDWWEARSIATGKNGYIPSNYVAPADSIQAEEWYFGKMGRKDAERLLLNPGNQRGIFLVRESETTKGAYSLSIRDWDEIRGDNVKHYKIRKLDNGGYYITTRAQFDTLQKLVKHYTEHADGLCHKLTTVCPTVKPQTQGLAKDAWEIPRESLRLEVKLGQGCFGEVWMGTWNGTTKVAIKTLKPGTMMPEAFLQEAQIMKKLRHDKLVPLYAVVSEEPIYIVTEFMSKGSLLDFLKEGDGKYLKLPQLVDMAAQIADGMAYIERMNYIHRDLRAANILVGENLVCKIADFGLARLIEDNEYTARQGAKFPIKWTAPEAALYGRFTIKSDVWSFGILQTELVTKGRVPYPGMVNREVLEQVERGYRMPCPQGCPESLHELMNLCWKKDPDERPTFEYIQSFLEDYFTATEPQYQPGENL

[5] = target: off-target kinases (Homo sapiens, UniProt Q9Y5S2); settings: CDC42 BPB (MRCKB), ZLYTE, ATP Km app
Chain of off-target kinases (Homo sapiens, UniProt Q9Y5S2) (Q9Y5S2 whole entry): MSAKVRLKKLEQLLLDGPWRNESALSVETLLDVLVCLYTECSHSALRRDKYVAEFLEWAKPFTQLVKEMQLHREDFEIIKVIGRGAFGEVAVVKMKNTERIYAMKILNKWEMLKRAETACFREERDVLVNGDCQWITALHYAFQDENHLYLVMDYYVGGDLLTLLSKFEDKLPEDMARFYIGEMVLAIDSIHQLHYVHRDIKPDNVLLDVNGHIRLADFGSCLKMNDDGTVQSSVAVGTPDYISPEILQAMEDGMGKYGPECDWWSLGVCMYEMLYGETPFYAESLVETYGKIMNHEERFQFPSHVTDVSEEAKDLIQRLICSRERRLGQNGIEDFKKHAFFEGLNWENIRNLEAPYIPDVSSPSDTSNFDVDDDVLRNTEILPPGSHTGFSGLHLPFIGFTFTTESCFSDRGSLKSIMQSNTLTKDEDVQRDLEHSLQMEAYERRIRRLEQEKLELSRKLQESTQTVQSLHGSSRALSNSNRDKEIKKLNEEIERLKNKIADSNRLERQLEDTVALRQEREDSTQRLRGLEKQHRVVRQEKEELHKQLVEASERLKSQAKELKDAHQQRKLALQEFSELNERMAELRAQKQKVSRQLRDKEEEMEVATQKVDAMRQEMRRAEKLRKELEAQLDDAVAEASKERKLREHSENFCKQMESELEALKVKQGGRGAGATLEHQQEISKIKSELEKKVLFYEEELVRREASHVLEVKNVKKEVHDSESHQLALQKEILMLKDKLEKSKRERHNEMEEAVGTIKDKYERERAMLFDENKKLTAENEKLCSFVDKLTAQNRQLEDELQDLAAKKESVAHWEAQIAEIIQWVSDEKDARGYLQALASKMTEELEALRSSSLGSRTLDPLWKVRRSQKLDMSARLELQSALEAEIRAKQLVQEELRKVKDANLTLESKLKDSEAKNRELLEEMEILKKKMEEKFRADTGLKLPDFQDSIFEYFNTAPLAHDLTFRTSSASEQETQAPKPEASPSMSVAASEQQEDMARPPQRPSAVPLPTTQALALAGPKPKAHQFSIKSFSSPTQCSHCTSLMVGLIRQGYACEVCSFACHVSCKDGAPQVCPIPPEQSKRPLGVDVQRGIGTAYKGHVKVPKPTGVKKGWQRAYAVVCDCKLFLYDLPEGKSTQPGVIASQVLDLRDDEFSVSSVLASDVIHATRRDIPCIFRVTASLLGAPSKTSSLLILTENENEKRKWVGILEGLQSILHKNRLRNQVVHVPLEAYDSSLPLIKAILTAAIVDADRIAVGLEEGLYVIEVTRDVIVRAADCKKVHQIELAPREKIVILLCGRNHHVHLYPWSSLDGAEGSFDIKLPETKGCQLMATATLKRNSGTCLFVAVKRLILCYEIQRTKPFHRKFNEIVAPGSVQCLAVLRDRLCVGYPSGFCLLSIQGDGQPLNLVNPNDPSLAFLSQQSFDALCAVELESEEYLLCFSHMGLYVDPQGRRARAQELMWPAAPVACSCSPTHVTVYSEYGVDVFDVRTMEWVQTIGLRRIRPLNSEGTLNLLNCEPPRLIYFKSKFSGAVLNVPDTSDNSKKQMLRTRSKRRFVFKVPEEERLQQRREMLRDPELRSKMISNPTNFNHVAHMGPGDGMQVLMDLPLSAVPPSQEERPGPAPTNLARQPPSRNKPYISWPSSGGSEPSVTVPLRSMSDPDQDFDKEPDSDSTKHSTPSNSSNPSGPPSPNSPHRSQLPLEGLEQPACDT

[6] = target: off-target kinases (Homo sapiens, UniProt P10721, D820E); settings: KIT D820E, mutant y, LanthaScreen Binding
Chain of off-target kinases (Homo sapiens, UniProt P10721, D820E) (P10721 26-976 D820E): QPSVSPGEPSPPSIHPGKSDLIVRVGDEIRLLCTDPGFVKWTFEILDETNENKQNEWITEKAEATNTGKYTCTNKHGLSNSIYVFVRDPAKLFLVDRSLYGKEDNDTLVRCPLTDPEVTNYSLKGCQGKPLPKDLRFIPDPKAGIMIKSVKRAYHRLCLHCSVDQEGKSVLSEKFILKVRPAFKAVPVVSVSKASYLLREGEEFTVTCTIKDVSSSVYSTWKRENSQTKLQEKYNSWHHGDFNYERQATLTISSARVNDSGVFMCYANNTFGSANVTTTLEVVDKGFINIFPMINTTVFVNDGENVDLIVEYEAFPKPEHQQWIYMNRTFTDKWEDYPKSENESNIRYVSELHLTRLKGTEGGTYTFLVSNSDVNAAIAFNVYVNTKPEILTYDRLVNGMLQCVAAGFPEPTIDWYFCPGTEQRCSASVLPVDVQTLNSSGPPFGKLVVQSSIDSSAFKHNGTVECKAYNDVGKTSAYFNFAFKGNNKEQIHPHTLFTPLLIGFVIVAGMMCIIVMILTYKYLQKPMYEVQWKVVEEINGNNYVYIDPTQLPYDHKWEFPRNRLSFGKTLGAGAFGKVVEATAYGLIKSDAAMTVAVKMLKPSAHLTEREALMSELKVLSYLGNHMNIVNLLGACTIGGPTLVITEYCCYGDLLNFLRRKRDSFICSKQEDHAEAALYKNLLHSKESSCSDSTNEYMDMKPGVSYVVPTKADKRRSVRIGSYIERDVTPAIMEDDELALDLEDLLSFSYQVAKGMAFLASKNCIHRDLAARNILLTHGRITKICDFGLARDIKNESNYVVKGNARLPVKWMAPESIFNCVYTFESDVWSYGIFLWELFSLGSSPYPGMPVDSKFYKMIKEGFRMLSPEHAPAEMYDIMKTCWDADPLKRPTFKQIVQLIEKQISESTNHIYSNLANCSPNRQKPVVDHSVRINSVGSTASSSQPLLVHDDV

[7] = target: off-target kinases (Homo sapiens, UniProt Q15349); settings: RPS6KA2 (RSK3), ZLYTE, ATP Km app
Chain of off-target kinases (Homo sapiens, UniProt Q15349) (Q15349 whole entry): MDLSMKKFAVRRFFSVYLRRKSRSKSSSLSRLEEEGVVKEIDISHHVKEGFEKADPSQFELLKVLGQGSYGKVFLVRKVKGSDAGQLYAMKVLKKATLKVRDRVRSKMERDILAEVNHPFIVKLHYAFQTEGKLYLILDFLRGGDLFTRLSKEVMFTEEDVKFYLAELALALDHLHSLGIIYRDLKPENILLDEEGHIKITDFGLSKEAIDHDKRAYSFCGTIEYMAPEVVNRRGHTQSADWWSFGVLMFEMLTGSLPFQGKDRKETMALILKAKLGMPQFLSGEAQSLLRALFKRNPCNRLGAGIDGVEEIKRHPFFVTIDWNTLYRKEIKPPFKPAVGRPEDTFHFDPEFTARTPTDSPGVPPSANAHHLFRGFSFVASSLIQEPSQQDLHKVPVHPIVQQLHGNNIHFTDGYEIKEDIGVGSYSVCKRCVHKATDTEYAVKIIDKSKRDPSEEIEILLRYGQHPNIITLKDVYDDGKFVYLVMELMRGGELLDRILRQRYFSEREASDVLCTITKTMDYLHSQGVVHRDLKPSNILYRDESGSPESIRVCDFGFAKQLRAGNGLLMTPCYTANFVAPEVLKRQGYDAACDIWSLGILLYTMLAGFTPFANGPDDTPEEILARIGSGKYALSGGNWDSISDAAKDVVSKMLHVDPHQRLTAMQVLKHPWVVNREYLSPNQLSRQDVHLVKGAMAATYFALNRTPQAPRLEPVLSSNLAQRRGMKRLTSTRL

N#Cc1cc(-c2ncnc(Nc3ccc(N4CCN(C5COC5)CC4)cc3)n2)ccc1OC1CCOCC1 [Compound 1, 5-(4-((4-(4-(oxetan-3-yl)piperazin-1-yl)phenyl)amino)-1,3,5-triazin-2-yl)-2-((tetrahydro-2H-pyran-4-yl)oxy)benzonitrile]
inhibition ([1]; read-out: % Inhibition 1): 11%
inhibition ([1]; read-out: % Inhibition 2): 8%
inhibition ([1]; read-out: % Inhibition Avg): 10%
inhibition ([2]; read-out: % Inhibition 1): 85%
inhibition ([2]; read-out: % Inhibition 2): 84%
inhibition ([2]; read-out: % Inhibition Avg): 84%
inhibition ([3]; read-out: % Inhibition 1): 5%
inhibition ([3]; read-out: % Inhibition 2): 3%
inhibition ([3]; read-out: % Inhibition Avg): 4%
inhibition ([4]; read-out: % Inhibition 1): 55%
inhibition ([4]; read-out: % Inhibition 2): 51%
inhibition ([4]; read-out: % Inhibition Avg): 53%
inhibition ([5]; read-out: % Inhibition 1): 6%
inhibition ([5]; read-out: % Inhibition 2): 13%
inhibition ([5]; read-out: % Inhibition Avg): 10%
inhibition ([6]; read-out: % Inhibition 1): 18%
inhibition ([6]; read-out: % Inhibition 2): 19%
inhibition ([6]; read-out: % Inhibition Avg): 18%
inhibition ([7]; read-out: % Inhibition 1): 17%
inhibition ([7]; read-out: % Inhibition 2): 13%
inhibition ([7]; read-out: % Inhibition Avg): 15%
